Experimental findings from ChEMBL document CHEMBL1141549, “Synthesis and antihyperglycemic activity of novel N-acyl-2-arylethylamines and N-acyl-3-coumarylamines” (2008) are described below.

This experiment has as its system Rattus norvegicus. Briefly: Antihyperglycemic activity in sucrose loaded diabetic Sprague-Dawley rat model assessed as reduction of plasma glucose levels at 100 mg/kg, po. The class given is functional. More on the design: scale not given: the % may be the effect or the level left.
As for `COc1cc(/C=C/C(=O)NCCc2ccc(OC)c(OC)c2)ccc1O`, the Activity was determined as 30.7%.
Consider `COc1ccc(CCNC(=O)/C=C/c2cc(OC)c(OC)c(OC)c2)cc1OC`, for which the Activity was found to be 2.41%.
For `COc1ccc(/C=C/C(=O)NCCc2ccc(OC)c(OC)c2)cc1`, the Activity came out at 19.5%.
Take `COc1ccc(CCNC(=O)/C=C/c2ccccc2)cc1OC`: the Activity is 20.1%.
The result for `COc1ccc(CCNC(=O)/C=C/c2ccc(F)cc2)cc1OC` reads 23.4%; that for `COc1ccc(CCNC(=O)/C=C/c2ccc(Cl)cc2)cc1OC`, 21.5%.
Take `COc1ccc(CCNC(=O)/C=C/c2cccc(C(F)(F)F)c2)cc1OC`: the Activity is 32.8%.
The result for `O=C(/C=C/c1ccccc1)Nc1cc2ccccc2oc1=O` reads 22.3%; that for `CC(C)(C)c1cc(C(C)(C)C)c2oc(=O)c(NC(=O)/C=C/c3cccc(C(F)(F)F)c3)cc2c1`, 21.1%; that for `O=C(Nc1cc2ccccc2oc1=O)c1ccccc1`, 10.7%.
To `CC(C)(C)c1cc(C(C)(C)C)c2oc(=O)c(NC(=O)c3ccccc3)cc2c1` belongs 23.3%; to `COc1cccc(/C=C/C(=O)NCCc2ccc(OC)c(OC)c2)c1`, 25.2%; to `CC(C)(C)c1cc(C(C)(C)C)c2oc(=O)c(NC(=O)/C=C/c3ccccc3)cc2c1`, 8.89%.
To `COc1ccc(Cl)cc1C(=O)NCCc1ccc(S(=O)(=O)NC(=O)NC2CCCCC2)cc1` [GLYBURIDE] belongs 33.7%.
As to `CN(C)C(=N)NC(=N)N` [METFORMIN], the Activity stood at 12.9%.
